# Data: patent US20210401863A1, “TREATMENT AND PREVENTION OF NEISSERIA GONORRHOEAE INFECTION USING CMP-ACTIVATED NONULOSONATE ANALOG COMPOUNDS” (NATIONAL RESEARCH COUNCIL OF CANADA, priority 2015, published 2021)
# Where two headings read alike, the source gives them in different places.
# What was measured:
# [1] = target: T1, gonococcal LOS sialyltransferase (Lst) (Neisseria gonorrhoeae, UniProt P72074); conditions: from U.S. patent application Ser. No. 14/627,396; cited from earlier work
# T1 construct: CMP-KDN served as a substrate for gonococcal Lst in the context of live bacteria; endogenous in cells; host or cells: N. gonorrhoeae F62 ΔlgtD (live bacteria)
# T1 sequence (P72074 whole entry): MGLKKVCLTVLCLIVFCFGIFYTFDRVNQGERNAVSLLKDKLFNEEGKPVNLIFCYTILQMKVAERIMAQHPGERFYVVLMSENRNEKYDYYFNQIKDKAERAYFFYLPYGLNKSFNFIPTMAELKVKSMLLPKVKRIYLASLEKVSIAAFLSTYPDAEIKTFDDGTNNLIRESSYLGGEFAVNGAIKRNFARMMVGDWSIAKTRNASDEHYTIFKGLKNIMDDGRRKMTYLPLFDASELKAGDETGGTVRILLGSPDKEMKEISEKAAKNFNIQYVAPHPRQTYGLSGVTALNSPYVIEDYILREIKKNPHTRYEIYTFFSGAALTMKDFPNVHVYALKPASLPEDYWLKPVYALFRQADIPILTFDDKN
# N. gonorrhoeae F62 ΔlgtD [2] = conditions: from U.S. patent application Ser. No. 14/627,396; cited from earlier work
# N. gonorrhoeae H041 = assay: BALB/c mouse vaginal colonization model; format: in vivo; conditions: 10 μg intravaginally daily; Premarin treated BALB/c mice
# Description: FIG. 2: Female BALB/c mice 5-6 weeks of age (Jackson Laboratories) in the diestrus phase of the estrous cycle were started on treatment (that day) with 0.5 mg of Premarin (Pfizer) given subcutaneously on each of three days; −2, 0 and +2 days (before, the day of and after inoculation) to prolong the estrus phase of the cycle and promote susceptibility to N. gonorrhoeae infection. Antibiotics (vancomycin, colistin, neomycin, trimethoprim and streptomycin) that were ineffective against N. gonorrhoeae were also used to reduce competitive microflora. Mice (n=40) were then infected with 10^6 CFU of strain H041. Three groups of mice (n=10/group) were treated with 10 μg intravaginally daily (first dose was administered 30 minutes before the introduction of bacteria) with one of the following CMP-NulOs in normal saline: CMP-Leg5Ac7Ac, CMP-Neu5Ac9Az or CMP-KDN. A fourth group (n=10) was given saline (vehicle control). Vaginal swabs were obtained daily from each animal, serially diluted and plated on chocolate agar containing vancomycin, colistin, neomycin, trimethoprim and streptomycin (VCNTS) to quantify bacterial loads. A. Median time to clearance was estimated using Kaplan-Meier survival curves; the times to clearance were compared between groups using a log-rank test. P<0.0001 for the control versus each of the treatment groups. Time to clearance between each of the treatment groups was similar (P>0.05). B. The mean area under the curve (log10 CFU vs. time) was computed for each mouse to estimate the bacterial burden over time (cumulative infection); the means under the curves were compared between groups using the Kruskal-Wallis nonparametric rank sum test because distributions were skewed or kurtotic. Groups were compared using Dunn's multiple comparison test. ****, P<0.0001; **, P<0.01; *, P<0.05. The differences among the groups that received CMP-NulOs were not significant.
# The mouse model experiments and statistical analysis were conducted as described in the art and in U.S. Pat. No. 9,765,106. […]
# purified human FH [3] = conditions: from U.S. Pat. No. 9,765,106 / Ser. No. 14/627,396; cited from earlier work
# N. gonorrhoeae F62 ΔlgtD [4] = format: cell-based, Neisseria gonorrhoeae
# Description: Generally, bacteria (F62 ΔlgtD) grown overnight on chocolate agar plates were suspended in gonococcal liquid media supplemented with IsoVitaleX [29] that contained specified concentrations of the CMP-nonulosonate. Bacteria were then incubated at 37° C. for the period specified in each experiment.
# Serum bactericidal assays were performed as follows, similar to methods outlined in [32,33] and in U.S. Pat. No. 9,765,106. Bacteria were harvested from an overnight culture on chocolate agar plates and ˜10^5 CFU of Ng were grown in liquid media containing the concentrations of CMP-NuIO as specified for each experiment. Bacteria were diluted in Morse A and ˜2000 CFU of Ng F62 ΔlgtD were incubated with NHS (concentration specified for each experiment). The final reaction volumes were maintained at 150 μL. Aliquots of 25 μL of reaction mixtures were plated onto chocolate agar in duplicate at the beginning of the assay (t0) and again after incubation at 37° C. for 30 minutes (t30). Survival was calculated as the number of viable colonies at t30 relative to t0.
# Addition of a terminal Neu5Ac residue to the LNnT LOS of N. gonorrhoeae that occurs in vivo or following the addition of CMP-Neu5Ac to growth media results in resistance to complement-dependent killing. We next determined the effects of LNnT incorporation of KDN on the ability of N. gonorrhoeae F62 ΔlgtD to resist complement-dependent killing by normal human sera at concentrations of 3.3% or 10%. Bacteria were grown either in media alone, or media supplemented with 20 μg/mL of CMP-Neu5Ac or CMP-KDN. In addition, CMP-NulO competition experiments were also performed with CMP-Neu5Ac, CMP-Leg5Ac7Ac and CMP-KDN at CMP-NulO concentrations of either 20 μg/mL or 2 μg/mL as indicated, where the second CMP-NulO was added 15 minutes after the first (Table 1 below). To note, these CMP-NulO competition experiments are a method to examine the ability of select CMP-NulOs to counter the enhanced serum resistance due to CMP-Neu5Ac addition, providing information on their therapeutic potential (as any potential therapeutic will be required to compete with CMP-Neu5Ac in vivo).
# [5] = target: T1, gonococcal LOS sialyltransferase (Lst); assay: mAb 3F11 binding by flow cytometry (incorporation of NulO on LNnT LOS by Lst); format: cell-based, N. gonorrhoeae F62 ΔlgtD; conditions: F62 ΔlgtD grown in media with 20 μg/mL CMP-NulO
# Description: FIG. 1: CMP-KDN serves as a substrate for gonococcal LOS and incorporation of KDN on gonococcal lacto-N-neotetraose LOS enhances factor H (FH) binding. A. Incorporation of KDN by gonococci. Gonococcal strain F62 ΔlgtD (expresses lacto-N-neotetraose (LNnT) from Hepl) was grown in media containing CMP-KDN (20 μg/mL) and binding of mAb 3F11 was measured by flow cytometry. mAb 3F11 binds only to […] LNnT; substitution of the terminal Gal of LNnT, for example with a NulO, will decrease mAb 3F11 binding. Approximately 5×10^7 bacteria were incubated with mAb 3F11 tissue culture supernatants for 15 minutes at 37° C. Binding of mAb 3F11 was disclosed with anti-mouse IgM FITC (Sigma; dilution of 1:100). Bacteria grown in CMP-Neu5Ac or in media alone were used as positive and negative controls for sialylation, respectively. A representative histogram is shown in the upper panel. […] B. Factor H (FH) binding to gonococci grown in CMP-KDN. Approximately 5×10^7 bacteria grown in media alone (no sialic acid), media plus CMP-Neu5Ac (20 μg/mL; positive control for FH binding) or in media containing CMP-KDN (20 μg/mL) were incubated with purified human FH (20 μg/mL) in HBSS** for 15 minutes at 37° C. and bound FH was detected with affinity isolated goat anti-human FH followed by anti-goat IgG FITC (Sigma; 1:100 dilution). A representative histogram is shown in the upper panel.
# FIG. 3: CMP-KDN7N3 serves as a substrate for gonococcal Lst resulting in incorporation of KDN7N3 on gonococcal lacto-N-neotetraose (LNnT) LOS—Incorporation of KDN7N3 by gonococci. Gonococcal strain F62ΔlgtD (expresses lacto-N-neotetraose (LNnT) from Hepl) was grown in media containing CMP-KDN7N3 (20 μg/mL) and binding of mAb 3F11 was measured by flow cytometry. mAb 3F11 binds only to […] LNnT; substitution of the terminal Gal of LNnT, for example with a NulO, will decrease mAb 3F11 binding. Approximately 5×10^7 bacteria were incubated with mAb 3F11 tissue culture supernatants for 15 minutes at 37° C. Binding of mAb 3F11 was disclosed with anti-mouse IgM FITC (Sigma; dilution of 1:100). […]
# purified human FH [6] = assay: Factor H (FH) binding to gonococci by flow cytometry; format: cell-based; conditions: F62 ΔlgtD grown with 20 μg/mL CMP-NulO, human FH 20 μg/mL
# Description: FIG. 1: CMP-KDN serves as a substrate for gonococcal LOS and incorporation of KDN on gonococcal lacto-N-neotetraose LOS enhances factor H (FH) binding. A. Incorporation of KDN by gonococci. Gonococcal strain F62 ΔlgtD (expresses lacto-N-neotetraose (LNnT) from Hepl) was grown in media containing CMP-KDN (20 μg/mL) and binding of mAb 3F11 was measured by flow cytometry. mAb 3F11 binds only to […] LNnT; substitution of the terminal Gal of LNnT, for example with a NulO, will decrease mAb 3F11 binding. Approximately 5×10^7 bacteria were incubated with mAb 3F11 tissue culture supernatants for 15 minutes at 37° C. Binding of mAb 3F11 was disclosed with anti-mouse IgM FITC (Sigma; dilution of 1:100). Bacteria grown in CMP-Neu5Ac or in media alone were used as positive and negative controls for sialylation, respectively. A representative histogram is shown in the upper panel. […] B. Factor H (FH) binding to gonococci grown in CMP-KDN. Approximately 5×10^7 bacteria grown in media alone (no sialic acid), media plus CMP-Neu5Ac (20 μg/mL; positive control for FH binding) or in media containing CMP-KDN (20 μg/mL) were incubated with purified human FH (20 μg/mL) in HBSS** for 15 minutes at 37° C. and bound FH was detected with affinity isolated goat anti-human FH followed by anti-goat IgG FITC (Sigma; 1:100 dilution). A representative histogram is shown in the upper panel. […]
# [7] = CMP-Neu5Ac (20 μg/mL) first, labelled CMP-NulO (20 μg/mL) added 15 minutes later
# [8] = labelled CMP-NulO (20 μg/mL) first, CMP-Neu5Ac (2 μg/mL) added 15 minutes later
# [9] = labelled CMP-NulO (20 μg/mL) first, CMP-Neu5Ac (20 μg/mL) added 15 minutes later
Compound,substrate for gonococcal LOS sialyltransferase (Lst) (earlier results) [1],serum resistance / serum-mediated killing (earlier results) (N. gonorrhoeae F62 ΔlgtD [2]),attenuation of N. gonorrhoeae H041 infection (N. gonorrhoeae H041),fH binding to bacteria (earlier results) (purified human FH [3]),% survival in 3.3% serum (N. gonorrhoeae F62 ΔlgtD [4]; [7]) [%],% survival in 10% serum (N. gonorrhoeae F62 ΔlgtD [4]; [7]) [%],"countering of serum resistance mediated by CMP-Neu5Ac (competition, in words) (N. gonorrhoeae F62 ΔlgtD [4]; CMP-NulO competition, second CMP-NulO 15 minutes after the first, 3.3% and 10% serum)",% survival in 3.3% serum (N. gonorrhoeae F62 ΔlgtD [4]; [8]) [%],% survival in 10% serum (N. gonorrhoeae F62 ΔlgtD [4]; [8]) [%],% survival in 3.3% serum (N. gonorrhoeae F62 ΔlgtD [4]; [9]) [%],% survival in 10% serum (N. gonorrhoeae F62 ΔlgtD [4]; [9]) [%],binding of mAb 3F11 (use as substrate by gonococcal Lst) [5],fH binding to bacteria (purified human FH [6]),"% survival in 10% serum (N. gonorrhoeae F62 ΔlgtD [4]; Table 1, CMP-NulO 20 μg/mL alone) [%]","% survival in 3.3% serum (N. gonorrhoeae F62 ΔlgtD [4]; Table 5, CMP-NulO 20 μg/mL) [%]","% survival in 10% serum (N. gonorrhoeae F62 ΔlgtD [4]; Table 5, CMP-NulO 20 μg/mL) [%]"
CC(=O)N[C@@H]([C@@H]1O[C@](OP(=O)(O)OC[C@H]2O[C@@H](n3ccc(N)nc3=O)[C@H](O)[C@@H]2O)(C(=O)O)C[C@H](O)[C@H]1NC(C)=O)[C@@H](C)O [CMP-Leg5Ac7Ac],can serve as substrates for gonococcal LOS sialyltransferase (Lst),enhanced serum-mediated killing,significantly attenuated,not enhance fH binding above levels seen with an unsialylated F62 ΔlgtD control,9,5,blocked serum resistance mediated by CMP-Neu5Ac at both 3.3% and 10% serum concentrations irrespective of the order of addition,6,6,7,3,–,–,–,–,–
CC(=O)N[C@H]1[C@H]([C@H](O)[C@H](O)CO)O[C@](OP(=O)(O)OC[C@H]2O[C@@H](n3ccc(N)nc3=O)[C@H](O)[C@@H]2O)(C(=O)O)C[C@@H]1O [CMP-Neu5Ac],–,–,–,–,–,–,–,–,–,–,–,decreased binding of mAb 3F11 similarly,Maximal fH binding,115,133.03,129.02
